Experimental data from ChEMBL document CHEMBL5260832, “Hepatoprotective natural triterpenoids” (Eur J Med Chem, 2018).

Experiments:
L02 [1] = assay: Protection against D-GalN-induced toxicity in L02 cells […] assessed as reduction in cell growth relative to control; format: functional, Homo sapiens; parameters: scale not given: the % may be the effect or the level left
L02 [2] = assay: Protection against D-GalN-induced toxicity in L02 cells […] assessed as reduction in cell growth at 6.25 microg/ml relative to control; format: functional, Homo sapiens; parameters: scale not given: the % may be the effect or the level left; details: dose 6.25 µg/ml
L02 [3] = assay: Protection against D-GalN-induced toxicity in L02 cells […] assessed as reduction in cell growth at 3.13 microg/ml relative to control; format: functional, Homo sapiens; parameters: scale not given: the % may be the effect or the level left; details: dose 3.13 µg/ml
Mus musculus [4] = assay: Hepatoprotective activity against CCl4-induced mouse chronic liver injury model assessed as decreased sGPT level at 15 mg/kg, ip relative to control; format: functional; parameters: scale not given: the % may be the effect or the level left
Mus musculus [5] = assay: Hepatoprotective activity against CCl4-induced mouse acute liver injury model assessed as decreased sGOT level at 15 mg/kg, ip relative to control; format: functional; parameters: scale not given: the % may be the effect or the level left
Mus musculus [6] = assay: Hepatoprotective activity against CCl4-induced mouse chronic liver injury model assessed as decreased LDH level at 15 mg/kg, ip relative to control; format: functional; parameters: scale not given: the % may be the effect or the level left
Mus musculus [7] = assay: Hepatoprotective activity against CCl4-induced mouse chronic liver injury model assessed as decreased AP level at 15 mg/kg, ip relative to control; format: functional; parameters: scale not given: the % may be the effect or the level left
Mus musculus [8] = assay: Hepatoprotective activity against CCl4-induced mouse acute liver injury model assessed as decreased AP level at 15 mg/kg, ip relative to control; format: functional; parameters: scale not given: the % may be the effect or the level left
Mus musculus [9] = assay: Hepatoprotective activity against CCl4-induced mouse chronic liver injury model assessed as decreased sGOT level at 15 mg/kg, ip relative to control; format: functional; parameters: scale not given: the % may be the effect or the level left
Mus musculus [10] = assay: Hepatoprotective activity against CCl4-induced mouse acute liver injury model assessed as decreased LDH level at 15 mg/kg, ip relative to control; format: functional; parameters: scale not given: the % may be the effect or the level left
Mus musculus [11] = assay: Hepatoprotective activity against CCl4-induced mouse acute liver injury model assessed as decreased sGPT level at 15 mg/kg, ip relative to control; format: functional; parameters: scale not given: the % may be the effect or the level left
HepG2 [12] = assay: Hepatoprotective activity against H2O2-induced human HepG2 cells assessed as increase in ALT level; format: functional
HepG2 [13] = assay: Hepatoprotective activity against H2O2-induced human HepG2 cells assessed as increase in AST level at 186.00 uM; format: functional
Mus musculus [14] = species on record: Mus musculus; assay: Hepatoprotective activity in mouse model of CCl4-induced liver injury assessed as reduction in ALT level at 100 microg/ml (reference value: 40.2 U/mL); format: functional; details: dose 100 µg/ml
[15] = Hepatotoxicity in D-GaIN induced Wistar rat assessed as change in GTP leakage level for 10 days relative to control; format: toxicity; details: in vivo, 240 h, time 10 day
[16] = Hepatotoxicity in D-GaIN induced Wistar rat assessed as change in induction of TAT level for 10 days relative to control; format: toxicity; parameters: concentration or dose not given beside the values; details: in vivo, 240 h, time 10 day
Mus musculus [17] = species on record: Mus musculus; assay: Hepatoprotective activity against D-galactosamine-induced liver injury mouse model assessed as […] leakage at 50 ug/ml; format: functional; details: dose 50 µg/ml
[18] = Hepatotoxicity in acetaminophen-induced Wistar rat assessed as reduction in liver damage by measuring histological score at 50 to 100 mg/kg (reference value: 4.83); format: toxicity, organism-based; details: in vivo, dose 50-100 mg/kg
HepG2 [19] = assay: Cytoprotective activity against t-BHP induced cell death in human HepG2 cells assessed as cell survival rate at 5 uM relative to control; format: functional
HepG2 [20] = assay: Hepatoprotective activity against H2O2-induced human HepG2 cells assessed as increase in AST level at 25.55 uM; format: functional
Mus musculus [21] = species on record: Mus musculus; assay: Hepatoprotective activity in mouse model of CCl4-induced liver injury assessed as reduction in AST level at 100 microg/ml (reference value: 5.9 U/mL); format: functional; details: dose 100 µg/ml

Structure (SMILES): CC(C)(O[C@@H]1O[C@H](CO)[C@@H](O)[C@H](O)[C@H]1O)[C@@H]1CC[C@@H]([C@H]2[C@H](O)C[C@]3(C)[C@@H]2CC[C@@H]2[C@@]4(C)CC[C@H](O[C@@H]5O[C@H](CO)[C@@H](O)[C@H](O)[C@H]5O[C@@H]5O[C@H](CO)[C@@H](O)[C@H](O)[C@H]5O)C(C)(C)[C@@H]4CC[C@]23C)O1
- Activity (L02 [1]): 46.7%
- Activity (L02 [2]): 22.8%
- Activity (L02 [3]): 22.8%

Structure (SMILES): CC1(C)CC[C@]2(C)CC[C@]3(C)C(=CC[C@@H]4[C@@]5(C)CCC(=O)C(C)(C)[C@@H]5C(O)C[C@]43C)[C@@H]2C1 (some centres not stated)
- Activity (Mus musculus [4]): 36.4%
- Activity (Mus musculus [5]): 51.3%
- Activity (Mus musculus [6]): 24.8%
- Activity (Mus musculus [7]): 55.3%
- Activity (Mus musculus [8]): 40.6%
- Activity (Mus musculus [9]): 38.8%
- Activity (Mus musculus [10]): 45%
- Activity (Mus musculus [11]): 45.3%

Structure (SMILES): C/C(=C\CC[C@@H](C)[C@H]1CC[C@@]2(C)C3=C(CC[C@]12C)[C@@]1(C)CC[C@H](O)C(C)(C)[C@@H]1CC3=O)C(=O)O
- Activity (HepG2 [12]): 20.95 U/L
- Activity (HepG2 [13]): 24.27 U/L

Structure (SMILES): C=C1[C@H](O)C[C@]2(C)CC[C@]3(C)C(=C[C@@H](O)[C@@H]4[C@@]5(C)CC[C@H](OC(C)=O)C(C)(C)[C@@H]5CC[C@]43C)[C@@H]2[C@@H]1C
- Activity (Mus musculus [14]): 15.7 U/ml

Structure (SMILES): CC1(C)CC[C@]2(C)CC[C@]3(C)C(=CC[C@@H]4[C@@]5(C)CC[C@H](O)C(C)(C)[C@@H]5CC[C@]43C)[C@@H]2C1 [beta-AMYRIN]
- Activity [15]: 49.4%
- Activity [16]: 40%
- Activity (Mus musculus [17]): 17.3%
- Activity [18]: 2.17

Structure (SMILES): CC(C(=O)O)[C@H]1CC[C@@]2(C)[C@@H]3C(=O)C=C4[C@@H](CC[C@@H](O)C4(C)C)[C@]3(C)CC[C@]12C (some centres not stated)
- Activity (HepG2 [19]): 55.2%

Structure (SMILES): CC(=O)[C@H]1CC(=O)[C@@]2(C)C3=C(C(=O)C[C@]12C)[C@@]1(C)CCC(=O)C(C)(C)[C@@H]1CC3=O
- Activity (HepG2 [12]): 21.42 U/L
- Activity (HepG2 [20]): 26.83 U/L

Structure (SMILES): C[C@H]1[C@H](C)CC[C@]2(C)CC[C@]3(C)C(=CC[C@@H]4[C@@]5(C)CC[C@H](O)C(C)(C)[C@@H]5CC[C@]43C)[C@H]12
- Activity (Mus musculus [21]): 40.22 U/ml
